# Measured values as given in patent US20230407243A1, “GENETIC PLATFORM TO INVESTIGATE THE FUNCTIONS OF BACTERIAL DRUG EFFLUX PUMPS” (priority 2022, published 2023).
# Where two headings read alike, the source gives them in different places.
# Experiments:
# Type in all cases: cell-based, Escherichia coli
# EKO-35 araC::acrB = assay: MIC susceptibility profiling, efflux platform; conditions: EKO-35 araC::acrB compared to EKO-35
# Outline: (§1)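 Overnight LB cultures (37 °C, 18 h) were resuspended in PBS pH 7.4 to OD600 ~1.0 and diluted 1/2000 into MHB II. Strains were exposed to 2-fold serial compound dilutions in duplicate for 18 h at 37 °C with shaking. MIC was read from OD600 after subtracting pre-incubation background.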
# EKO-35 araC::mdtEF = assay: MIC susceptibility profiling, efflux platform
# Outline: as §1
# wild-type (WT) K-12-Pore = assay: microbe, parasite or virus in culture; conditions: Escherichia coli, technical duplicate
# Outline: (§2)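 Strains carry the fhuA ΔC/Δ4L pore integrated between glmS and pstS under a constitutive promoter, with pore activity checked by vancomycin susceptibility. Overnight LB cultures were adjusted in PBS pH 7.4 to OD600 ~1.0 and diluted 1/2000 into MHB II. 2-fold compound titrations were read by OD600 after 18 h at 37 °C.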
# ΔtolC-Pore = assay: microbe, parasite or virus in culture
# Outline: as §2
# EKO-35 (empty pCA24N) = assay: microbe, parasite or virus in culture; conditions: for MIC: EKO-35 empty pCA24N, 0.1 mM IPTG
# [1] = system: EKO-35 strains producing different efflux pumps (EKO-35 araC::X); assay: Checkerboard synergy (FICI) of PAβN or NMP with antibiotics; conditions: for Effect / FICI: PAβN + antibiotic; for MICb Alone: antibiotic alone (PAβN checkerboard); for MICb Combined: antibiotic in combination with PAβN
# Outline: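 Interaction of PAβN or NMP with antibiotics is scored as FICI = CA/MICA + CB/MICB, from MICs (no growth, OD600) in MHB II checkerboard microdilution following CLSI. Solvent controls accompany every plate.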
# EKO-35-Pore = assay: MIC susceptibility profiling, porinated strain; conditions: for MIC: Escherichia coli, technical duplicate
# Outline: as §2
# [2] = system: wild-type E. coli K-12 str. BW25113; assay: microbe, parasite or virus in culture; conditions: Escherichia coli, BW25113, technical duplicate
# Outline: as §1
# E. coli EKO-35 = assay: microbe, parasite or virus in culture; conditions: for MIC: Escherichia coli, EKO35, technical duplicate
# Outline: as §1
# E. coli ΔtolC = assay: microbe, parasite or virus in culture
# Outline: as §1
# ΔtolC (empty pCA24N) = assay: microbe, parasite or virus in culture; conditions: Escherichia coli, ΔtolC empty pCA24N, 0.1 mM IPTG
smiles,measurement,setting,value
CO[C@@H]1[C@@H](OC(N)=O)[C@@H](O)[C@H](Oc2ccc3c(O)c(NC(=O)c4ccc(O)c(CC=C(C)C)c4)c(=O)oc3c2C)OC1(C)C [novobiocin],Fold change of MICs,EKO-35 araC::acrB,128 fold
same,Fold change of MICs,EKO-35 araC::mdtEF; EKO-35 araC::mdtEF compared to EKO-35,16 fold
same,MIC,"EKO-35 araC::mdtEF; Escherichia coli, Table 13A, non-porinated, technical duplicate, read-out: Minimum Inhibitory Concentration, EKO-35 araC::mdtEF",50 µg/mL
same,MIC,"wild-type (WT) K-12-Pore; Table 10, with pore, read-out: Minimum inhibitory concentration (MIC), Pore K-12",12.5 µg/mL
same,MIC,"wild-type (WT) K-12-Pore; Table 14A, porinated, read-out: Minimum inhibitory concentration, K-12 (WT)-Pore",12.5 µg/mL
same,MIC,"ΔtolC-Pore; Escherichia coli, 18 h, read-out: Minimum inhibitory concentration, ΔtolC-Pore",0.391 µg/mL
same,"Minimum inhibitory concentration (MIC), Pore ΔtolC","ΔtolC-Pore; Table 10, with pore, technical duplicate",0.391 µg/mL
same,MIC,EKO-35 (empty pCA24N); Chlor + (4 μg/mL chloramphenicol),3.13 µg/mL
same,MIC,"EKO-35 (empty pCA24N); Escherichia coli, Chlor −, read-out: MIC",3.13 µg/mL
same,fold difference in susceptibility between EKO-35 and ΔtolC,EKO-35 (empty pCA24N); while profiling the ASKA EKO-35 strains,2 fold
same,Effect,[1]; EKO-35 acrB,Synergistic
same,FICI,[1]; EKO-35 acrB,0.156
same,MICb Alone,[1]; EKO-35 acrB,1024 µg/mL
same,MICb Combined,[1]; EKO-35 acrB,32 µg/mL
same,Effect,[1]; EKO-35 acrD,Synergistic
same,FICI,[1]; EKO-35 acrD,0.313
same,MICb Alone,[1]; EKO-35 acrD,512 µg/mL
same,MICb Combined,[1]; EKO-35 acrD,32 µg/mL
same,Fold changes of MICs,EKO-35-Pore; EKO-35-Pore compared to EKO-35-Pore (reference),1 fold
same,MIC,"EKO-35-Pore; Table 10, with pore, read-out: Minimum inhibitory concentration (MIC), Pore EKO-35",0.781 µg/mL
same,MIC,"EKO-35-Pore; Table 14A, porinated, read-out: Minimum inhibitory concentration, EKO-35-Pore",0.781 µg/mL
same,MIC,"[2]; Table 10, without pore, read-out: Minimum inhibitory concentration (MIC), K-12",200 µg/mL
same,MIC,"[2]; Table 13A, non-porinated, read-out: Minimum Inhibitory Concentration, K-12",200 µg/mL
same,Fold change of MICs,E. coli EKO-35; EKO-35 compared to EKO-35 (reference),1 fold
same,MIC,"E. coli EKO-35; Table 10, without pore, read-out: Minimum inhibitory concentration (MIC), EKO-35",3.12 µg/mL
same,MIC,"E. coli EKO-35; Table 13A, non-porinated, read-out: Minimum Inhibitory Concentration, EKO-35",3.12 µg/mL
same,MIC,"E. coli ΔtolC; Escherichia coli, 18 h, read-out: Minimum Inhibitory Concentration, ΔtolC",0.781 µg/mL
same,"Minimum inhibitory concentration (MIC), ΔtolC","E. coli ΔtolC; Table 10, without pore, technical duplicate",0.781 µg/mL
same,fold difference in MIC between EKO-35 and ΔtolC,"E. coli ΔtolC; ΔtolC mutant more susceptible than EKO-35, Table 10",4 fold
same,MIC,ΔtolC (empty pCA24N); Chlor +,1.56 µg/mL
same,MIC,ΔtolC (empty pCA24N); Chlor −,3.13 µg/mL
